# Measured values taken from US20230330254A1 (Regeneron Pharmaceuticals, Inc., priority 2022, published 2023).
# pEC50: −log10 of the molar value. Where two headings read alike, the source gives them in different places. Where a SMILES comes first, the peptide text is derived from it. [ ]: non-standard residue; d: D form. The star is where a group is joined. Bip(2'-Et,4'-O(CH2)4NH2) = CCc1cc(OCCCCN)ccc1-c1ccc(C[C@H](N)C(=O)O)cc1; Malonyl(2,2-Me2,histaminyl) = CC(C)(C(=O)NCCc1cnc[nH]1)C(=O)*; Nva(5-(3,5-Me2Ph)) = Cc1cc(C)cc(CCC[C@H](N)C(=O)O)c1; Ala(1H-tetrazol-5-yl) = N[C@@H](Cc1nnn[nH]1)C(=O)O; αMePhe(2-F) = C[C@](N)(Cc1ccccc1F)C(=O)O
# How the values were obtained:
# [1] = Plasma stability of payloads and linker-payloads, human plasma; assay type: in vitro ADME
# Summary of the method: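 Pooled plasma, pH adjusted to 7.4±0.1 where needed, spiked to 2 μM compound (duplicate) and incubated at 37 °C. At each time point, protein was precipitated with ACN/MeOH stop solution containing internal standards; remaining compound quantified in supernatant by LC-MS/MS.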
# HEK293/CRE-Luc cells = experiment: Luciferase reporter assay, HEK293/CRE-Luc cells without GLP1R (Example 17); assay type: cell-based, human
# Summary of the method: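 HEK293 cells carrying a CRE-driven firefly luciferase reporter were exposed to 3-fold serial dilutions of payloads or linker-payloads (12 points, 0.2% DMSO final) for 4–6 h, then luminescence was read. EC50 came from a four-parameter logistic fit; S/N is top RLU over untreated wells, and relative potency and S/N are referenced to M2361.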
# human GLP1R [2] = target: T1, human GLP1R (Homo sapiens, UniProt P43220); experiment: Luciferase reporter assay, HEK293/CRE-Luc/hGLP1R cells (Example 11); assay type: cell-based; parameters: engineered to express full-length human GLP1R, cynomolgus GLP1R; expressed in transfected cells; host or cells: HEK293/CRE-Luc; conditions: Table 11; Experiment A
# T1 sequence (P43220 24-463): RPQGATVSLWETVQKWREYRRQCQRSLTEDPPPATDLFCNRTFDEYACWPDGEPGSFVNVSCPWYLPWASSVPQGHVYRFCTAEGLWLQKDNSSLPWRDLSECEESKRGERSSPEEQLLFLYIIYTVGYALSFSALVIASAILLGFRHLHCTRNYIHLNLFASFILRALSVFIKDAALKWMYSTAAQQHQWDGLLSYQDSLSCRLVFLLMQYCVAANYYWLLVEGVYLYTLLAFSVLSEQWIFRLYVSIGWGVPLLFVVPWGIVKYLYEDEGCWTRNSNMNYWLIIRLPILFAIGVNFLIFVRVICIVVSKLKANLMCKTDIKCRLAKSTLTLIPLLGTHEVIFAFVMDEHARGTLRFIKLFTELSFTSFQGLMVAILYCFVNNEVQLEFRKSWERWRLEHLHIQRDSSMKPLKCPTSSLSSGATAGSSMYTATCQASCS
# human GLP1R [3] = target: T1, human GLP1R; experiment: Human GLP1R cAMP accumulation assay; assay type: cell-based; parameters: HEK293 cells over-expressing full length human GLP-1R were utilized; expressed in transfected cells; host or cells: HEK293 (HEK293/hGLP1R)
# Summary of the method: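 cAMP accumulation measured after 30 min at 23° C, with 500 μM IBMX in HEPES-buffered HBSS plus 0.1% BSA, in HEK293 cells expressing full-length hGLP-1R. Levels read by D2-cAMP/antibody immunoassay via standard curve, scaled between low and high controls. EC50 fitted four-parameter over a 10-point curve.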
# [4] = HEK293/CRE-Luc cells without hGLP1R, payloads and linker-payloads
# [5] = HEK293/CRE-Luc cells without hGLP1R, payloads and linker-payloads, read-out: EC50
# [6] = HEK293/hGLP1R cells, Table 4, read-out: cAMP EC50
SMILES,"half-life at 2 µM ([1]; plasma, pH 7.4, tested time A (1 day per footnote), 2 μM, 37° C., read-out: Human plasma stability assay T½ (converted)) [h]",S/N (HEK293/CRE-Luc cells; [4]),pEC50 (HEK293/CRE-Luc cells; [5]),pEC50 (human GLP1R [2]),HEK293/CRE-LUC/hGLP1R Relative Potency (% P8 EC50) (human GLP1R [2]) [%],HEK293/CRE-LUC/hGLP1R S/N (human GLP1R [2]),pEC50 (human GLP1R [3]; [6]),"half-life at 2 µM ([1]; pooled plasma, pH 7.4, Table 5C, read-out: Plasma Stability Human T½) [h]","half-life at 2 µM ([1]; pooled plasma, pH 7.4, tested time C (3 days), 2 μM, 37° C., read-out: Human plasma stability assay T½ (converted)) [h]",HEK293/CRE-LUC/hGLP1R Relative Signal:Noise (% P8) (human GLP1R [2]) [%],"pEC50 (human GLP1R [3]; Table 5C, read-out: c-AMP EC50)","S/N (HEK293/CRE-Luc cells; HEK293/CRE-Luc cells without hGLP1R, ATDCs and references (Table 27))","pEC50 (HEK293/CRE-Luc cells; HEK293/CRE-Luc cells without hGLP1R, ATDCs and references (Table 27), read-out: EC50)","pEC50 (HEK293/CRE-Luc cells; Table 28, reporter cells without GLP1R, read-out: HEK293/CRE-Luc EC50)","pEC50 (HEK293/CRE-Luc cells; Table 29, reporter cells without GLP1R, read-out: HEK293/CRE-Luc EC50)"
"CCc1cc(OCCCCN)ccc1-c1ccc(C[C@H](NC(=O)[C@H](CC(=O)O)NC(=O)[C@H](CO)NC(=O)[C@@H](NC(=O)[C@](C)(Cc2ccccc2F)NC(=O)[C@@H](NC(=O)CNC(=O)[C@H](Cc2nn[nH]n2)NC(=O)C(C)(C)C(=O)NCCc2cnc[nH]2)[C@@H](C)O)[C@@H](C)O)C(=O)N[C@@H](CCCc2cc(C)cc(C)c2)C(N)=O)cc1 [P9, (8S,14S,17S,20S,23S,26S)-8-((2H-tetrazol-5-yl)methyl)-26-(((S)-1-(((S)-1-amino-5-(3,5-dimethylphenyl)-1-oxopentan-2-yl)amino)-3-(4′-(4-aminobutoxy)-2′-ethyl-[1,1′-biphenyl]-4-yl)-1-oxopropan-2-yl)carbamoyl)-17-(2-fluorobenzyl)-14,20-bis((R)-1-hydroxyethyl)-23-(hydroxymethyl)-1-(1H-imidazol-5-yl)-5,5,17-trimethyl-4,6,9,12,15,18,21,24-octaoxo-3,7,10,13,16,19,22,25-octaazaoctacosan-28-oic acid] ({Malonyl(2,2-Me2,histaminyl)}-[Ala(1H-tetrazol-5-yl)]GT[αMePhe(2-F)]TSD[Bip(2'-Et,4'-O(CH2)4NH2)][Nva(5-(3,5-Me2Ph))]-NH2)",> 57.8,1.3,< 6.70,11.40,133.8,75.2,10.30,–,–,–,–,–,–,–,–
"CCc1cc(OCCCCn2cc(COCCOCCOCCOCCOCCOCCOCCOCCN)nn2)ccc1-c1ccc(C[C@H](NC(=O)[C@H](CC(=O)O)NC(=O)[C@H](CO)NC(=O)[C@@H](NC(=O)C(C)(Cc2ccccc2F)NC(=O)[C@@H](NC(=O)CNC(=O)[C@H](Cc2nn[nH]n2)NC(=O)C(C)(C)C(=O)NCCc2cnc[nH]2)[C@@H](C)O)[C@@H](C)O)C(=O)N[C@@H](CCCc2cc(C)cc(C)c2)C(N)=O)cc1 (stereo partly drawn) [LP11, NH2-PEG8-triazole-P8]",–,–,–,10.79,33.1,74.5,9.50,> 168,> 173,113.3,9.50,–,–,–,–
CCc1cc(OCCCCn2cc(COCCOCCOCCOCCOCCOCCOCCOCCN)nn2)ccc1-c1ccc(C[C@H](NC(=O)[C@H](CC(=O)O)NC(=O)[C@H](CO)NC(=O)[C@@H](NC(=O)[C@](C)(Cc2ccccc2F)NC(=O)[C@@H](NC(=O)CNC(=O)[C@H](Cc2nn[nH]n2)NC(=O)C(C)(C)C(=O)NCCc2cnc[nH]2)[C@@H](C)O)[C@@H](C)O)C(=O)N[C@@H](CCCc2cc(C)cc(C)c2)C(N)=O)cc1 [M3190],–,1.3,< 6.70,–,–,–,–,–,–,–,–,1.3,< 7.70,< 6.70,< 7.52
